# Measurements taken from patent US7700617B2, “Salt of naphthyridine carboxylic acid derivative” (LG Life Sciences, Ltd., priority 1997, dated 2010).
# Experiments:
# [1] = Observed moisture content of the methanesulfonate hydrates; assay type: physicochemical; conditions: by hydration number (n)
# Text: The moisture content of the methanesulfonate hydrates varies with the hydration number (n) of the hydrated molecule. The methanesulfonate has a molecular weight of 485.5 thus the calculated moisture content of hydrates where n is 1, 1.5, 2, 2.5, 3, 3.5 and 4 is 3.6%, […], 6.9%, 8.5%, 10.0%, 11.5% and 12.9% respectively. However, the actual moisture content of the methanesulfonate hydrates may differ from the calculated value depending on various factors including recrystallization conditions and drying conditions.
# [2] = system: Staphylococcus aureus 6538p; test: In vitro antibacterial activity, agar medium dilution method; assay type: cell-based; conditions: weight ratio, molecular weight not considered, read-out: Minimum Inhibitory Concentration: MIC
# Description: (§1) In order to determine whether 7-(3-aminomethyl-4-methyloxyimino-pyrrolidin-1-yl)-1-cyclopropyl-6-fluoro-4-oxo-1,4-dihydro-1,8-naphthyridine-3-carboxylic acid methanesulfonate has the same antibacterial activity as the free base, in vitro antibacterial activity of the methanesulfonate was measured using agar medium dilution method.
# Staphylococcus aureus 77 = test: as above; assay type: cell-based; conditions: read-out: Minimum Inhibitory Concentration: MIC
# Description: as §1
# Bacillus subtilis 6633 = test: as above; assay type: cell-based; conditions: read-out: Minimum Inhibitory Concentration: MIC
# Description: as §1
# [3] = system: Staphylococcus aureus epidermidis 887E; test: as above; assay type: cell-based; conditions: read-out: Minimum Inhibitory Concentration: MIC
# Description: as §1
# [4] = system: Escherichia coli TEM5 3739E; test: as above; assay type: cell-based; conditions: TEM53739E, read-out: Minimum Inhibitory Concentration: MIC
# Description: as §1
# Escherichia coli 3190Y = test: as above; assay type: cell-based; conditions: read-out: Minimum Inhibitory Concentration: MIC
# Description: as §1
# [5] = system: Staphylococcus aureus faecalis 29212; test: as above; assay type: cell-based; conditions: read-out: Minimum Inhibitory Concentration: MIC
# Description: as §1
# Micrococcus luteus 9431 = test: as above; assay type: cell-based; conditions: read-out: Minimum Inhibitory Concentration: MIC
# Description: as §1
# [6] = system: Klebsiella aerogenes 1976E; test: as above; assay type: cell-based; conditions: read-out: Minimum Inhibitory Concentration: MIC
# Description: as §1
# Proteus vulgaris 6059 = test: as above; assay type: cell-based; conditions: read-out: Minimum Inhibitory Concentration: MIC
# Description: as §1
# [7] = system: Staphylococcus aureus epidermidis 178; test: as above; assay type: cell-based; conditions: read-out: Minimum Inhibitory Concentration: MIC
# Description: as §1
# [8] = system: Pseudomonas aeruginosa 1912E; test: as above; assay type: cell-based; conditions: read-out: Minimum Inhibitory Concentration: MIC
# Description: as §1
# Seratia marsecence 1826E = test: as above; assay type: cell-based; conditions: read-out: Minimum Inhibitory Concentration: MIC
# Description: as §1
# Escherichia coli 10536 = test: as above; assay type: cell-based; conditions: read-out: Minimum Inhibitory Concentration: MIC
# Description: as §1
# [9] = system: Staphylococcus aureus giorgio; test: as above; assay type: cell-based; conditions: read-out: Minimum Inhibitory Concentration: MIC
# Description: as §1
# [10] = system: Acinetobacter calcoaceticus 15473; test: as above; assay type: cell-based; conditions: read-out: Minimum Inhibitory Concentration: MIC
# Description: as §1
# [11] = system: Pseudomonas aeruginosa 10145; test: as above; assay type: cell-based; conditions: read-out: Minimum Inhibitory Concentration: MIC
# Description: as §1
# Escherichia coli 851E = test: as above; assay type: cell-based; conditions: read-out: Minimum Inhibitory Concentration: MIC
# Description: as §1
# [12] = system: Staphylococcus aureus 241; test: as above; assay type: cell-based; conditions: read-out: Minimum Inhibitory Concentration: MIC
# Description: as §1
# [13] = system: Salmonella thypimurium 14028; test: as above; assay type: cell-based; conditions: read-out: Minimum Inhibitory Concentration: MIC
# Description: as §1
# [14] = system: Escherichia coli TEM3 3455E; test: as above; assay type: cell-based; conditions: TEM33455E, read-out: Minimum Inhibitory Concentration: MIC
# Description: as §1
# [15] = Equilibrium moisture content determination of hydrates in desiccators of controlled relative humidity; assay type: physicochemical; conditions: for Relative humidity range with constant moisture content: FIGS. 3 and 4
# Description: Six saturated aqueous salt solutions were introduced into each desiccator to control the inner relative humidity to a specific value as shown in Table 3. Then, equilibrium moisture contents of n=3 hydrate and n=1.5 hydrate of Examples 2 and 3, respectively, were determined at several relative humidities.
# The sample (100 mg) was spread on a pre-weighed Petri dish and the total weight was accurately measured, then three of the sample were placed in each desiccator of Table 3. The desiccators were allowed to stand at normal temperature for 7 days and then the sample was taken to be weighed. After 13 days, one of the three samples inside each desiccator was taken and the moisture content of each was measured by the thermogravimetric analysis described in Test Example 2. Equilibrium moisture content at each relative humidity is represented in FIG. 3 (n=3 hydrate) and FIG. 4 (n=1.5 hydrate). […] Both hydrates are stable since they maintain a constant equilibrium moisture content regardless of the relative humidity change.
# [16] = Chemical stability at elevated temperature, decomposition by liquid chromatography; assay type: physicochemical; conditions: for Chemical stability compared with the anhydrate: 70° C., liquid chromatography; for Thermal stability with elapsed time: at 70° C.
# Description: The present inventors also compared the chemical stability under heating of the hydrates with that of the anhydrate in order to identify the influence of hydration on the chemical stability. In this test, the anhydrate and hydrate were each kept at 70° C. for 4 weeks, and the extent of decomposition is analyzed by liquid chromatography. No difference in the extent of decomposition was noticed between the hydrates and the anhydrate, and thus confirming that the hydrate has the same chemical stability as the anhydrate.
# The chemical stability of the n=3 hydrate of Example 2 and the n=1.5 hydrate of Example 3 and the anhydrate of Example 1 were compared at elevated temperature in order to determine the effect on chemical stability of the extent of hydration.
# The anhydrate and each of the hydrates were introduced into a glass vial and maintained at 70° C. The extent of decomposition with elapsed time was analyzed by liquid chromatography.
# [17] = Moisture sorption of the anhydrate, automatic moisture sorption analyzer; assay type: physicochemical; conditions: 25° C., each relative humidity 0 to 95%, in most cases
# Description: The moisture sorption velocity and the equilibrium moisture content of the anhydrate of Example 1 was determined by means of an automatic moisture sorption analyzer (MB 300G Gravimetric Sorption Analyzer). This instrument produces a specific relative humidity at a specific temperature and continuously records the weight change of a sample due to adsorption or desorption of moisture as measured by a micro balance inside the instrument. The anhydrate of Example 1 (16 mg) was loaded onto the micro balance and the moisture contained in the sample removed under a stream of dried nitrogen at 50° C. A weight change of less than 5 μg per 5 minutes was the criterion for complete dryness. Thereafter, the inner temperature was adjusted to 25° C. and the sample tested at 5% intervals whilst varying the humidity from 0 to 95%. The sample was considered to have reached equilibrium when the weight change was less than 5 μg per 5 minutes. […] It is clear from FIG. 2 that the equilibrium moisture content of the anhydrate is dependent on the relative humidity.
# [18] = system: Enterobacter cloacae 1194E; test: In vitro antibacterial activity, agar medium dilution method; assay type: cell-based; conditions: read-out: Minimum Inhibitory Concentration: MIC
# Description: as §1
# [19] = system: Citrobacter diversus 2046E; test: as above; assay type: cell-based; conditions: Citrobacter koseri, read-out: Minimum Inhibitory Concentration: MIC
# Description: as §1
# Enterobacter cloacae P99 = test: as above; assay type: cell-based; conditions: read-out: Minimum Inhibitory Concentration: MIC
# Description: as §1
# [20] = system: Escherichia coli TEM9 2639E; test: as above; assay type: cell-based; conditions: TEM92639E, read-out: Minimum Inhibitory Concentration: MIC
# Description: as §1
# [21] = system: Klebsiella aerogenes 1082E; test: as above; assay type: cell-based; conditions: read-out: Minimum Inhibitory Concentration: MIC
# Description: as §1
smiles,measurement,setting,value
CON=C1CN(c2nc3c(cc2F)c(=O)c(C(=O)O)cn3C2CC2)CC1CN.CON=C1CN(c2nc3c(cc2F)c(=O)c(C(=O)O)cn3C2CC2)CC1CN.CS(=O)(=O)O.CS(=O)(=O)O.O.O.O.O.O.O.O (centres unmarked) [n = 3.5 hydrate],Moisture Content,[1],11~12 % w/w
"O=C(O)c1cn(C2CC2)c2cc(N3CCNCC3)c(F)cc2c1=O [Ciprofloxacin, ciprofloxacin, reference compound]",MIC,[2],0.13 µg/mL
same,MIC,Staphylococcus aureus 77,0.25 µg/mL
same,MIC,Bacillus subtilis 6633,0.031 µg/mL
same,MIC,[3],0.13 µg/mL
same,MIC,[4],0.13 µg/mL
same,MIC,Escherichia coli 3190Y,< 0.008 µg/mL
same,MIC,[5],0.5 µg/mL
same,MIC,Micrococcus luteus 9431,2 µg/mL
same,MIC,[6],0.13 µg/mL
same,MIC,Proteus vulgaris 6059,0.031 µg/mL
same,MIC,[7],128 µg/mL
same,MIC,[8],0.13 µg/mL
same,MIC,Seratia marsecence 1826E,0.063 µg/mL
same,MIC,Escherichia coli 10536,< 0.008 µg/mL
same,MIC,[9],0.13 µg/mL
same,MIC,[10],0.25 µg/mL
same,MIC,[11],0.5 µg/mL
same,MIC,Escherichia coli 851E,< 0.008 µg/mL
same,MIC,[12],128 µg/mL
same,MIC,[13],0.031 µg/mL
same,MIC,[14],0.5 µg/mL
"CON=C1CN(c2nc3c(cc2F)c(=O)c(C(=O)O)cn3C2CC2)CC1CN.CON=C1CN(c2nc3c(cc2F)c(=O)c(C(=O)O)cn3C2CC2)CC1CN.CS(=O)(=O)O.CS(=O)(=O)O.O.O.O (centres unmarked) [n = 1.5 hydrate, 7-(3-aminomethyl-4-methoxyiminopyrrolidin-1-yl)-1-cyclopropyl-6-fluoro-4-oxo-1,4-dihydro-1,8-naphthyridine-3-carboxylic acid methanesulfonate n=1.5 hydrate]",Moisture Content,"[1]; listed as 1.5, hydrate",4~6 % w/w
same,Relative humidity range with constant moisture content,[15],23 to 64%
same,Water taken up,[15]; above 75% relative humidity,over 10%
same,Equilibrium moisture content,[15]; relative humidity 23 to 64%,around 5%
same,Chemical stability compared with the anhydrate,[16]; 4 weeks,same degree of chemical stability as the anhydrate
same,Thermal stability with elapsed time,[16]; 1 week,97.3%
same,Thermal stability with elapsed time,[16]; 2 weeks,95.8%
same,Thermal stability with elapsed time,[16]; 3 weeks,97.2%
same,Thermal stability with elapsed time,[16]; 4 weeks,96.2%
same,Thermal stability with elapsed time,[16]; Initial,100%
"CON=C1CN(c2nc3c(cc2F)c(=O)c(C(=O)O)cn3C2CC2)CC1CN.CS(=O)(=O)O (centres unmarked) [Anhydrate, 7-(3-aminomethyl-4-methoxyiminopyrrolidin-1-yl)-1-cyclopropyl-6-fluoro-4-oxo-1,4-dihydro-1,8-naphthyridine-3-carboxylic acid methanesulfonate anhydrate]",Time to reach moisture sorption equilibrium,[17],≤ 2 h
same,Thermal stability with elapsed time,[16]; 1 week,99.8%
same,Thermal stability with elapsed time,[16]; 2 weeks,98.6%
same,Thermal stability with elapsed time,[16]; 3 weeks,97.7%
same,Thermal stability with elapsed time,[16]; 4 weeks,96.7%
same,Thermal stability with elapsed time,[16]; Initial,100%
"CON=C1CN(c2nc3c(cc2F)c(=O)c(C(=O)O)cn3C2CC2)CC1CN.CS(=O)(=O)O.O.O.O (centres unmarked) [n = 3 hydrate, 7-(3-aminomethyl-4-methoxyiminopyrrolidin-1-yl)-1-cyclopropyl-6-fluoro-4-oxo-1,4-dihydro-1,8-naphthyridine-3-carboxylic acid methanesulfonate n=3 hydrate]",Relative humidity range with constant moisture content,[15],23 to 75%
same,Equilibrium moisture content,"[15]; relative humidity 23 to 75%, about 2 weeks",around 10%
same,Chemical stability compared with the anhydrate,[16]; 4 weeks,same degree of chemical stability as the anhydrate
same,Thermal stability with elapsed time,[16]; 1 week,102.4%
same,Thermal stability with elapsed time,[16]; 2 weeks,100.7%
same,Thermal stability with elapsed time,[16]; 3 weeks,99.2%
same,Thermal stability with elapsed time,[16]; 4 weeks,99.2%
same,Thermal stability with elapsed time,[16]; Initial,100%
CON=C1CN(c2nc3c(cc2F)c(=O)c(C(=O)O)cn3C2CC2)CC1CN.CS(=O)(=O)O.O.O.O.O (centres unmarked) [n = 4 hydrate],Moisture Content,[1],12~13 % w/w
"CON=C1CN(c2nc3c(cc2F)c(=O)c(C(=O)O)cn3C2CC2)CC1CN.CS(=O)(=O)O (centres unmarked) [Methanesulfonic acid salt, 7-(3-aminomethyl-4-methyloxyimino-pyrrolidin-1-yl)-1-cyclopropyl-6-fluoro-4-oxo-1,4-dihydro-1,8-naphthyridine-3-carboxylic acid methanesulfonate]",MIC,[2],0.016 µg/mL
same,MIC,Staphylococcus aureus 77,0.031 µg/mL
same,MIC,Bacillus subtilis 6633,0.016 µg/mL
same,MIC,[3],0.016 µg/mL
same,MIC,[18],0.031 µg/mL
same,MIC,[4],0.13 µg/mL
same,MIC,[19],0.031 µg/mL
same,MIC,Enterobacter cloacae P99,0.016 µg/mL
same,MIC,Escherichia coli 3190Y,0.008 µg/mL
same,MIC,[5],0.13 µg/mL
same,MIC,Micrococcus luteus 9431,0.13 µg/mL
same,MIC,[6],0.13 µg/mL
same,MIC,Proteus vulgaris 6059,0.25 µg/mL
same,MIC,[20],0.031 µg/mL
same,MIC,[7],4 µg/mL
same,MIC,[21],0.031 µg/mL
same,MIC,[8],0.25 µg/mL
same,MIC,Seratia marsecence 1826E,0.13 µg/mL
same,MIC,Escherichia coli 10536,0.008 µg/mL
same,MIC,[9],0.016 µg/mL
same,MIC,[10],0.031 µg/mL
same,MIC,[11],0.5 µg/mL
same,MIC,Escherichia coli 851E,0.016 µg/mL
same,MIC,[12],4 µg/mL
same,MIC,[13],0.031 µg/mL
same,MIC,[14],0.25 µg/mL
CON=C1CN(c2nc3c(cc2F)c(=O)c(C(=O)O)cn3C2CC2)CC1CN.CON=C1CN(c2nc3c(cc2F)c(=O)c(C(=O)O)cn3C2CC2)CC1CN.CS(=O)(=O)O.CS(=O)(=O)O.O.O.O.O.O (centres unmarked) [n = 2.5 hydrate],Moisture Content,[1],8~9 % w/w
